Bounds are passed on as bounds.

The values below come from patent US6967196B1, “Sulfonamide compounds and uses thereof” (Bristol-Myers Squibb Company, priority 1999, dated 2005).

In the first assay the test system is amyloid β production in transfected H4 (human neuroglioma) cells stably expressing APP constructs. The experiment in a line: In vitro cell-based assay of inhibitors of amyloid β production (ELISA). Particulars: Homo sapiens, 16 h, transfected H4 cells expressing APP, approximately 16 hours incubation, amyloid β in medium by ELISA; read-out: ACTIVITY (IC50, inhibition of amyloid β production). In short, it runs like this:
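Aβ secreted into the medium was determined by a two-antibody ELISA specific for the Aβ C-terminus, calibrated with known Aβ amounts. Before that, compounds (10-100 μM initially) were left on the cells for roughly 16 hours.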
Background: ELISA stands for enzyme-linked immunosorbent assay.
By IC50 is commonly meant the point on the concentration scale where inhibition reaches its midpoint. `C[C@H](C(=O)NCCc1ccc(F)cc1)N(c1cc(Cl)ccc1F)S(=O)(=O)c1ccc(Cl)cc1` [Example 1326]: the IC50 is more than 500 nM.
For `C[C@H](C(=O)NCc1c(F)cccc1F)N(c1cc(Cl)ccc1F)S(=O)(=O)c1ccc(Cl)cc1` [Example 1327], the IC50 is more than 500 nM.
Turning to `C[C@H](C(=O)NCC(C)(C)CO)N(c1cc(Cl)ccc1F)S(=O)(=O)c1ccc(Cl)cc1` [Example 1328], the IC50 fell in the range of 100 to 500 nM.
With `C[C@H](C(=O)N(CCN)c1ccccc1)N(c1cc(Cl)ccc1F)S(=O)(=O)c1ccc(Cl)cc1` [Example 1329], the IC50 was more than 500 nM.
Still for that read-out and setting: the same measure for `C[C@H](C(=O)NCc1cccc(I)c1)N(c1cc(Cl)ccc1F)S(=O)(=O)c1ccc(Cl)cc1` [Example 1330]: more than 500 nM.
`C[C@H](C(=O)NCCc1ccc(O)cc1)N(c1cc(Cl)ccc1F)S(=O)(=O)c1ccc(Cl)cc1` [Example 1331]: the half-inhibitory concentration (IC50) was more than 500 nM.
Regarding `C[C@H](C(=O)NCc1cccnc1)N(c1cc(Cl)ccc1F)S(=O)(=O)c1ccc(Cl)cc1` [Example 1332], the IC50 lay within 100 to 500 nM.
`CCCCN(CCCC)CCCNC(=O)[C@@H](C)N(c1cc(Cl)ccc1F)S(=O)(=O)c1ccc(Cl)cc1` [Example 1333]: the IC50 was more than 500 nM.
The same measure, in the same setting: the same measure for `C[C@H](C(=O)NCc1ccc(F)c(F)c1)N(c1cc(Cl)ccc1F)S(=O)(=O)c1ccc(Cl)cc1` [Example 1334]: more than 500 nM; for `CC(CCCC(C)(C)O)NC(=O)[C@@H](C)N(c1cc(Cl)ccc1F)S(=O)(=O)c1ccc(Cl)cc1` (stereo partly shown) [Example 1335]: more than 500 nM.
`C[C@H](C(=O)Nc1cc(Cl)ccc1O)N(c1cc(Cl)ccc1F)S(=O)(=O)c1ccc(Cl)cc1` [Example 1336]: the IC50 was more than 500 nM.
The same measure, in the same setting: the figure for `CCCCCCCCCCCCCCNC(=O)[C@@H](C)N(c1cc(Cl)ccc1F)S(=O)(=O)c1ccc(Cl)cc1` [Example 1337] is more than 500 nM.
Consider `C[C@H](C(=O)N[C@H]1CC[C@H](O)CC1)N(c1cc(Cl)ccc1F)S(=O)(=O)c1ccc(Cl)cc1` [Example 1338], for which the IC50 lay in the range of 100 to 500 nM.
On the same count and under the same terms, the same measure for `C[C@H](C(=O)NCCc1ccccn1)N(c1cc(Cl)ccc1F)S(=O)(=O)c1ccc(Cl)cc1` [Example 1339]: 100 to 500 nM; for `CC1CCCCN1CCCNC(=O)[C@@H](C)N(c1cc(Cl)ccc1F)S(=O)(=O)c1ccc(Cl)cc1` (stereo partly shown) [Example 1340]: more than 500 nM; for `C[C@H](C(=O)NCc1ccccn1)N(c1cc(Cl)ccc1F)S(=O)(=O)c1ccc(Cl)cc1` [Example 1341]: 100 to 500 nM.
Same read-out and setting: the same measure for `CC1CCC(NC(=O)[C@@H](C)N(c2cc(Cl)ccc2F)S(=O)(=O)c2ccc(Cl)cc2)CC1` (stereo partly shown) [Example 1342]: 100 to 500 nM; for `C[C@H](C(=O)N[C@@H](CO)CSCc1ccccc1)N(c1cc(Cl)ccc1F)S(=O)(=O)c1ccc(Cl)cc1` [Example 1343]: more than 500 nM.
The same measure, in the same setting: the same measure for `C[C@H](C(=O)NC(C)(C)CO)N(c1cc(Cl)ccc1F)S(=O)(=O)c1ccc(Cl)cc1` [Example 1344]: 100 to 500 nM; for `C[C@H](C(=O)NC1CCCCCCC1)N(c1cc(Cl)ccc1F)S(=O)(=O)c1ccc(Cl)cc1` [Example 1345]: 100 to 500 nM.
Regarding `COCCCNC(=O)[C@@H](C)N(c1cc(Cl)ccc1F)S(=O)(=O)c1ccc(Cl)cc1` [Example 1346], the IC50 lay in the range of 100 to 500 nM.
On to `CC1CCCC(NC(=O)[C@@H](C)N(c2cc(Cl)ccc2F)S(=O)(=O)c2ccc(Cl)cc2)C1` (stereo partly shown) [Example 1347], for which the IC50 was 100 to 500 nM.
In the case of `CCC(C)(C)c1ccc(OCCCCNC(=O)[C@@H](C)N(c2cc(Cl)ccc2F)S(=O)(=O)c2ccc(Cl)cc2)c(C(C)(C)CC)c1` [Example 1348], the IC50 was more than 500 nM.
On the same count and under the same terms, the same measure for `CC(C)C(CO)NC(=O)[C@@H](C)N(c1cc(Cl)ccc1F)S(=O)(=O)c1ccc(Cl)cc1` (stereo partly shown) [Example 1349]: 100 to 500 nM; for `C[C@H](C(=O)NCCCCCCO)N(c1cc(Cl)ccc1F)S(=O)(=O)c1ccc(Cl)cc1` [Example 1350]: 100 to 500 nM; for `C[C@H](C(=O)N[C@H](C)C1CCCCC1)N(c1cc(Cl)ccc1F)S(=O)(=O)c1ccc(Cl)cc1` [Example 1351]: more than 500 nM.
On the same count and under the same terms, the figure for `C[C@H](C(=O)NCCN1CCCCC1)N(c1cc(Cl)ccc1F)S(=O)(=O)c1ccc(Cl)cc1` [Example 1352] is more than 500 nM.
The same measure, in the same setting: the figure for `COc1ccc(CCNC(=O)[C@@H](C)N(c2cc(Cl)ccc2F)S(=O)(=O)c2ccc(Cl)cc2)cc1` [Example 1353] is more than 500 nM.
With `C[C@H](C(=O)N(CCN)c1ccc([N+](=O)[O-])cn1)N(c1cc(Cl)ccc1F)S(=O)(=O)c1ccc(Cl)cc1` [Example 1354], the IC50 was more than 500 nM.
Turning to `C[C@H](C(=O)N[C@H](CO)Cc1ccccc1)N(c1cc(Cl)ccc1F)S(=O)(=O)c1ccc(Cl)cc1` [Example 1355], the IC50 was more than 500 nM.
For the compound `C[C@H](C(=O)NCc1cccs1)N(c1cc(Cl)ccc1F)S(=O)(=O)c1ccc(Cl)cc1` [Example 1357], the IC50 is 100 to 500 nM.
For the compound `CC(C(=O)N[C@@H]1C[C@H]2CC[C@@H]1CC2)N(c1cc(Cl)ccc1F)S(=O)(=O)c1ccc(Cl)cc1` (stereo partly shown) [Example 1358], the IC50 fell in the range of 100 to 500 nM.
For `C[C@H](C(=O)NCCc1ccccc1F)N(c1cc(Cl)ccc1F)S(=O)(=O)c1ccc(Cl)cc1` [Example 1359], the concentration for half-maximal inhibition (IC50) is more than 500 nM.
On the same count and under the same terms, the same measure for `C[C@H](C(=O)NCCCCO)N(c1cc(Cl)ccc1F)S(=O)(=O)c1ccc(Cl)cc1` [Example 1360]: 100 to 500 nM; for `COc1ccc(CNC(=O)[C@@H](C)N(c2cc(Cl)ccc2F)S(=O)(=O)c2ccc(Cl)cc2)cc1` [Example 1361]: more than 500 nM; for `COc1cc(CNC(=O)[C@@H](C)N(c2cc(Cl)ccc2F)S(=O)(=O)c2ccc(Cl)cc2)cc(OC)c1OC` [Example 1362]: more than 500 nM.
As for `C[C@@H](C(=O)NCc1ccccc1Sc1ccccc1CO)N(c1cc(Cl)ccc1F)S(=O)(=O)c1ccc(Cl)cc1` [Example 1363], the IC50 is more than 500 nM.
On the same count and under the same terms, the same measure for `C[C@H](C(=O)NCc1cc(Cl)cc(Cl)c1)N(c1cc(Cl)ccc1F)S(=O)(=O)c1ccc(Cl)cc1` [Example 1365]: more than 500 nM.
`C[C@H](C(=O)NCc1ccc(C2=CSNN2)cc1)N(c1cc(Cl)ccc1F)S(=O)(=O)c1ccc(Cl)cc1` [Example 1366]: the IC50 is more than 500 nM.

Staying with this assay, now noted: transfected H4 cells expressing APP, approximately 16 hours incubation, amyloid β in medium by ELISA; read-out: ACTIVITY (IC50, inhibition of amyloid β production).
For `C[C@H](C(=O)NCc1cc(F)ccc1F)N(c1cc(Cl)ccc1F)S(=O)(=O)c1ccc(Cl)cc1` [Example 1356], the IC50 was more than 500 nM.
Still for that read-out and setting: the figure for `COc1cccc(OC)c1CNC(=O)[C@@H](C)N(c1cc(Cl)ccc1F)S(=O)(=O)c1ccc(Cl)cc1` [Example 1364] is more than 500 nM.

Staying with this assay, now noted: transfected H4 cells stably expressing APP constructs; approximately 16 hours incubation; amyloid β in medium by ELISA; read-out: ACTIVITY (IC50, inhibition of amyloid β production).
As for “(2E)-1-N-(benzyloxy)-3-[2-({[(4-chlorophenyl)sulfonyl]anilino}methyl)phenyl]-2-propenamide hydrochloride [Example 1093]”, the IC50 is more than 10000 nM.

Staying with this assay, now noted: transfected H4 cells stably expressing APP; approx. 16 h incubation; amyloid β in medium by ELISA; read-out: ACTIVITY (IC50, inhibition of amyloid β production).
On to “(2E)-1-N-{3-[2-({[(4-chlorophenyl)sulfonyl]-2,5-difluoroanilino}methyl)phenoxy]propyl}-N-methyl-2-butenamide [Example 783]”, for which the IC50 lay in the range of 100 to 500 nM.
